Measured values from patent US10806729B2, “Quinoline derivatives for use in the treatment or prevention of viral infection” (ABIVAX, priority 2015, dated 2020).
“Also recorded” adds a separate entry of the source.

Assays:
primary macrophages = assay: Cell viability of treated primary macrophages; format: cell-based, human; conditions: macrophages under treatment (data not shown)
Experimental: To generate monocyte derived macrophages (MDMs), monocytes were isolated using CD14 microbeads (catalog no. 130-050-201; Miltenyi) and cultured in X-VIVO10 medium (Lonza) supplemented with GM-CSF 1000 U/ml and M-CSF 100 ng/ml for 6 days. Monocytes were seeded at a cell count of 50,000 cells per well in a 96 well plate. After 6 days medium was replaced with X-VIVO10 w/o Cytokines. After 2 days Macrophages were treated with Compound 22 and/or its N-glucuronide metabolite o/n and next day infected with Yu-2 virus for 6 hrs, washed with PBS and cultured in medium containing the compounds for 12 days. Supernatant for p24 Elisa was collected 2 times a week.

PBMCs = assay: Lymphocyte populations in treated PBMCs; format: cell-based, human; conditions: PBMCs under treatment
[1] = tested on: HIV-1 strains (clade B, clade C and recombinants clades); assay: p24 inhibition in PBMCs infected with different HIV-1 strains (patient isolates); format: cell-based; conditions: 5 μM, 6 days pi, subtype B, C and recombinant viruses
Experimental: FIG. 2. HIV p24 inhibition of Compound 22 from different HIV-1 strains. A) Different HIV-1 strains (clade B, clade C and recombinants clades) were used to infect PBMCs from three different donors in the absence of presence of 5 μM of Compound 22. Supernatant was harvested 6 days pi and viral capsid protein p24 antigen was quantitated using standard ELISA protocol.

HIV-1 = tested on: HIV-1
Experimental: Resistance to Compound 22 was tested on human PBMCs and compared to current therapies. […] Various classes of antiviral agents can affect the life cycle of HIV-1 in different manners. […] The selection of drug resistant mutants in vitro can be readily accomplished by maintaining the virus in a state of sub-optimal growth, regulated by slowly increasing the amount of drug pressure applied. This technique mimics the consequences of drug therapy in patients. Therefore, in this way, novel compounds can be assessed for their selection profile in order to evaluate the likelihood of emergence of HIV-1 drug resistance in future clinical trials. In addition, combinations of drugs can be investigated in the same manner.

HIV-1 genome (YU2) = assay: Deep sequencing of virus from treated infected primary macrophages and after amplification in PBMCs; format: cell-based; conditions: deep sequencing across HIV-1 genome, treated vs untreated samples
Description: To test for emergence and/or selection of mutations associated with Compound 22 treatment, we applied a deep sequencing approach for sensitive detection of low-frequency viral variants across the entire HIV-1 genome. Viruses derived from treated and untreated infected primary macrophages of 4 different donors were sequenced and reads not aligning to human genome were aligned to YU2 sequence using gsnap, as detailed in Wu et al. (Fast and SNP-tolerant detection of complex variants and splicing in short reads. Bioinformatics 26, 873-881 (2010)).
To ascertain that amplification of viruses from treated samples will not mutate when amplified in PBMCs, they were sequenced following amplification with or without drug pressure.

YU2 HIV-1 virus = assay: NSG humanized mice infected with YU2 HIV-1 virus, viral load; format: in vivo, mouse
Experimental: Viral load was assessed by measuring viral RNA using the Amplicor HIV-1 Monitor from Roche.
All manipulations of NSG-HIS mice were performed under laminar flow. Gavage of mice was performed daily with a stainless steel gavage needle (Straight 22 Gauge, 1.4 inch in length). […] Mice were monitored three times a week for symptoms or signs of adverse events, according to a standard score sheet.
Mice were infected intraperitoneally i.p. with JR-CSF, 1×10^3 TCID50 per mouse and HIV YU-2, 1×106 TCID50 per mouse. HIV RNA plasma levels were measured by RT-PCR (Amplicor HIV-1 test or AmpliPrep/COBAS TaqMan HIV-1 Test, Roche) at various times after infection.

[2] = tested on: alternative splicing events of endogenous genes; assay: RT-PCR analysis of global alternative splicing events in PBMC samples; format: cell-based, human
Description: Quantification of non-viral RNA splicing is achieved using the protocols detailed in […] et al. (Multiple alternative splicing markers for ovarian cancer. Cancer Res. 68, 657-663 (2008)) and Venables et al. (Cancer-associated regulation of alternative splicing. Nat. Struct. Mol. Biol. 16, 670-676 (2009)). […] These 382 alternative splicing events (ASEs) represent a high throughput random snapshot of global alterations of alternative splicing. We performed high throughput PCR analysis of these (essentially random) 382 ASEs on multiple PBMC samples, either from untreated (cells) or treated with DMSO, Compound 22 or with the control antiviral drug (Darunavir). Analysis of the data allowed further stringent quality controls; ASEs were only considered if >75% of the products ran at the expected mobilities (i.e. if the reactions were pure) and if total expected PCR concentration was higher than 20 nM (i.e. if the reactions were strong) which led to 264 remaining ASEs.

HIV RNA splicing = assay: Sequence capture and 454 pyrosequencing of HIV RNA in infected PBMCs; format: cell-based, HIV-1
Experimental: To test whether Compound 22 influences the splicing of HIV RNA in infected cells, an array-based sequence capture was performed using a customized library probes targeting HIV sequences to get rid of cellular RNA. The probes were used to capture cDNAs prepared from infected treated and untreated PBMCs. After double capture, libraries were prepared and sequenced using 454 pyrosequencing (according to GS junior method manual). The average size of the reads around 400 bp allowed unambiguous assembly of viral genome from untreated sample (after 3 and 6 days of infection) using reads that were not mapped to human genome (hg19). All sequencing data were analysed using gsnap, as detailed in Wu et al. (Fast and SNP-tolerant detection of complex variants and splicing in short reads. Bioinformatics 26, 873-881 (2010)).

## FC(F)(F)Oc1ccc(Nc2ccc3cccc(Cl)c3n2)cc1 [Compound 22, 8-chloro-N-(4-(trifluoromethoxy)phenyl)quinolin-2-amine]
Primary macrophages
  cell viability: not decreased
PBMCs
  populations of lymphocytes present in PBMCs: did not alter
[1]
  inhibitory effect on HIV-1 subtypes (p24): strong inhibitory effect
HIV-1; conclusion drawn from the mutation selection results
  genotoxicity: not genotoxic
HIV-1; human PBMCs, increasing drug pressure
  Time of Selection (weeks): 24 weeks
HIV-1; treatment for at least 24 weeks
  resistance-inducing mutations detected after treatment: no resistance-inducing mutations detected
HIV-1 genome (YU2)
  selection of specific viral mutations: does not select for specific mutations; also recorded: unlikely to select for specific viral mutations
HIV-1 genome (YU2); listed as compound 22
  selection of specific viral mutations: do not select for HIV specific mutations
YU2 HIV-1 virus; 40 mg/kg daily, 30 days of treatment
  viral load during treatment: reduced the viral load
YU2 HIV-1 virus; after 30 days of treatment
  time the viral load remained low after treatment termination: at least 50 days
[2]
  global effect on pre-mRNA splicing: no global effect
HIV RNA splicing
  effect on spliced HIV RNA: favours spliced HIV RNA
HIV RNA splicing; 3 days post infection
  coverage of viral genome (number of reads): 4149 reads
HIV RNA splicing; 3 days post-infection
  reads corresponding to splice junctions: 17.4%
HIV RNA splicing; 6 days post-infection
  number of reads: 20 585
  reads corresponding to splice junctions: 13.3%
